Measured values from patent US9926324B2, “Heteroaromatic compounds as PI3 kinase modulators and methods of use” (Calitor Sciences, LLC, priority 2012, dated 2018).
Like-named read-outs stand apart in the source and are kept apart here.

Columns and labels:
[1] = Compound stability in human liver microsomes; format: in vitro ADME; conditions: pH 7.4; for half-life at 5 μM: human liver microsomes 0.5 mg protein/mL, compound 5 μM, NADPH 1.0 mM, 37° C., read-out: Human T1/2; for CLint scaled at 5 μM: human liver microsomes, in vivo CLint extrapolated
Procedure: (§1) Human or rat liver microsomes incubations were conducted in duplicate in polypropylene tubes. The typical incubation mixtures consisted of human or rat liver microsomes (0.5 mg protein/mL), compounds of interest (5 μM) and NADPH (1.0 mM) in a total volume of 200 μL potassium phosphate buffer (PBS, 100 mM, pH=7.4). Compounds were dissolved in DMSO and diluted with PBS such that the final concentration of DMSO was 0.05%. The enzymatic reactions were commenced with the addition of […] after a 3-min preincubation and incubated in a water bath open to the air at 37° C. Reactions were terminated at various time points (0, 5, 10, 15, 30, 60 min) by adding equal volume of ice-cold acetonitrile. The samples were stored at −80° C. until LC/MS/MS assays.
(§2) The concentrations of compounds in the incubation mixtures of human or rat liver microsomes were determined by a LC/MS/MS method. The ranges of the linearity in the concentration range were determined for each tested compounds.
(§3) A parallel incubation was performed using denatured microsomes as the negative control, and reactions were terminated at various time points (0, 15, 60 min) after incubation at 37° C.
(§4) Dextromethorphan (70 μM) was selected as the positive control, and reactions were terminated at various time points (0, 5, 10, 15, 30, 60 min) after incubation at 37° C. Both positive and negative control samples were included in each assay to ensure the integrity of the microsomal incubation system.
(§5) The concentrations of compounds in human or rat liver microsome incubations were plotted as a percentage of the relevant zero time point control for each reaction. The in vivo CLint were extrapolated (ref: Naritomi Y, Terashita S, Kimura S, Suzuki A, Kagayama A, Sugiyama Y. Prediction of human hepatic clearance from in vivo animal experiments and in vitro metabolic studies with liver microsomes from animals and humans. Drug Metabolism and Disposition 2001, 29: 1316-1324).

PI3K p110α/p85α (h) = target: T1, PI3K p110α/p85α (h) (Homo sapiens, UniProt P42336); test: PI3K p110α/p85α (h) non-radioactive HTRF assay; format: biochemical
T1 construct: purchased Millipore UK Ltd (assay service)
T1 sequence (P42336 whole entry): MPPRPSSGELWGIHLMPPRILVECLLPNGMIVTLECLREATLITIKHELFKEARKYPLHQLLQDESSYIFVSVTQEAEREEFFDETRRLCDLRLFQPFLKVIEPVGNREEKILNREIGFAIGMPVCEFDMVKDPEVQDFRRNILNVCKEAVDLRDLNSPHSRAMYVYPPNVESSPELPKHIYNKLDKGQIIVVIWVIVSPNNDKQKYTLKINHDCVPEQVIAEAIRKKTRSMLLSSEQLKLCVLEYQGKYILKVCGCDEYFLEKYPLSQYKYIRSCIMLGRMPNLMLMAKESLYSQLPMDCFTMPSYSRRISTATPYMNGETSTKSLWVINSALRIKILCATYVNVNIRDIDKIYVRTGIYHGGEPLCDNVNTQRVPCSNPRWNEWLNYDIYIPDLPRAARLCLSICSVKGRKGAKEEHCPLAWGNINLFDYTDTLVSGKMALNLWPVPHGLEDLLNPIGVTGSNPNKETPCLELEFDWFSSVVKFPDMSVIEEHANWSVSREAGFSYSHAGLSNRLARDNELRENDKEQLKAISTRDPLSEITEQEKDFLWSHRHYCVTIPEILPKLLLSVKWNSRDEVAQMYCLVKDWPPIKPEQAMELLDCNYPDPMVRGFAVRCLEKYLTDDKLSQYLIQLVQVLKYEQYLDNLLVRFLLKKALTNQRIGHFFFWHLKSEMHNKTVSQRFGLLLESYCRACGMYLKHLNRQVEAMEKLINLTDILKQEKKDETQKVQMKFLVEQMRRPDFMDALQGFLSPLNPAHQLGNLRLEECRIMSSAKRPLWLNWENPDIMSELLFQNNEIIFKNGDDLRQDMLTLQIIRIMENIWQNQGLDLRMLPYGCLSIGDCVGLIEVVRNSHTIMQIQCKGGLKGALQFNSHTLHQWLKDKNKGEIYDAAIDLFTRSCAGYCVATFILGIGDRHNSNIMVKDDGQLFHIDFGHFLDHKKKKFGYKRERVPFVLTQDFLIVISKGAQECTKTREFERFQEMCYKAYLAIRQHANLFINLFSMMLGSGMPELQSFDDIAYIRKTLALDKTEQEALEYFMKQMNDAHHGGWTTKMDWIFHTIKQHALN
T1 sequence (P27986 whole entry partner): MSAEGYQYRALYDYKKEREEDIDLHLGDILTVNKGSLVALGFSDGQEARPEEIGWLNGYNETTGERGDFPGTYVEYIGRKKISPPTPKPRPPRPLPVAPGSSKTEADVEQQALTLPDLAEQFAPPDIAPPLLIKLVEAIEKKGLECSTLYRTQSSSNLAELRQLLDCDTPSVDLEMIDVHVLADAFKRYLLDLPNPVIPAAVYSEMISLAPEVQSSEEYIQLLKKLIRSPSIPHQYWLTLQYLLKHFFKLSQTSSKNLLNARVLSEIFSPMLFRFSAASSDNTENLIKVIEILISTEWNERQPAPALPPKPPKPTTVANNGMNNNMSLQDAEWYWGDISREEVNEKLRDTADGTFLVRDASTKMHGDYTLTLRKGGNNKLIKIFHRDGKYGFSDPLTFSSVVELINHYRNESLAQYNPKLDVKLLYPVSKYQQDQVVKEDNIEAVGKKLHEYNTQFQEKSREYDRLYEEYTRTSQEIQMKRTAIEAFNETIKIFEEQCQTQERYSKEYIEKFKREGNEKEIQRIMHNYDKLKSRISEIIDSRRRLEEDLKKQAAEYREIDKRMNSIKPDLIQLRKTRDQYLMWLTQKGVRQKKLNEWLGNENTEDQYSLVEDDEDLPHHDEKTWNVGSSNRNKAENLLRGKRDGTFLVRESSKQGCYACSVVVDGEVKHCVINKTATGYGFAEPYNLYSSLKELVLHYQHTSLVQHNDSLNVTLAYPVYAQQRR
Procedure: (§6) PI3K p110α/p85α (h) is incubated in assay buffer containing 10 μM phosphatidylinositol 4,5-bisphosphate and MgATP (concentration as required). The reaction is initiated by the addition of the ATP solution. After incubation for 30 minutes at room temperature, the reaction is stopped by the addition of stop solution containing EDTA and biotinylated phosphatidylinositol-3,4,5-trisphosphate. Finally, detection buffer is added, which contains europium-labelled anti-GST monoclonal antibody, GST-tagged GRP1 PH domain and streptavidin allophycocyanin. The plate is then read in timeresolved fluorescence mode and the homogenous time-resolved fluorescence (HTRF) signal is determined according to the formula HTRF=10000×(Em665 nm/Em620 nm).
(§7) The kinase assays described herein were performed at Millipore UK Ltd, Dundee Technology Park, Dundee DD2 1SW, UK.

mTOR (h) = target: T2, mTOR (h) (Homo sapiens, UniProt P42345); test: mTOR (h) kinase assay (33P-ATP, filter); format: biochemical
T2 construct: purchased Millipore UK Ltd (assay service)
Procedure: mTOR (h) is incubated with 50 mM HEPES pH 7.5, 1 mM EDTA, 0.01% Tween 20, 2 mg/mL substrate, 3 mM Manganese Chloride and [γ-^33P-ATP] (specific activity approx. 500 cpm/pmol, concentration as required). The reaction is initiated by the addition of the MnATP mix. After incubation for 40 minutes at room temperature, the reaction is stopped by the addition of 3% phosphoric acid solution. 10 μL of the reaction is then spotted onto a P30 filtermat and washed three times for 5 minutes in 75 mM phosphoric acid and once in methanol prior to drying and scintillation counting.
as §7

[2] = Pharmacokinetic profiles in rats after intravenous and oral administration; format: in vivo; conditions: for F: oral dose generally 5 or 10 mg/kg; for AUC(0-t) / half-life / Vd: rat, plasma; for Vd: read-out: Vss
Procedure: The compounds disclosed herein are assessed in pharmacokinetic studies in mice, rats, dogs or monkeys. The compounds are administered as a water solution, 2% HPMC+1% TWEEN® 80 in water solution, 5% DMSO+5% solutol in saline, 4% MC suspension or capsule. For the intravenous administration, the animals are generally given at 1 or 2 mg/kg dose. For the oral (p.o.) dosing, mice and rats are generally given 5 or 10 mg/kg dose, and dogs and monkeys are generally given 10 mg/kg dose. The blood samples (0.3 mL) are drawn at 0.25, 0.5, 1.0, 2.0, 3.0, 4.0, 6.0, 8.0, 12 and 24 h time points or 0.083, 0.25, 0.5, 1.0, 2.0, 4.0, 6.0, 8.0 and 24 h time points and centrifuged at 3,000 or 4000 rpm for 2 to 10 min. The plasma solutions are collected, stored at −20° C. or −70° C. until analyzed by LC/MS/MS as described above.

[3] = Compound stability in rat liver microsomes; format: in vitro ADME; conditions: for half-life at 5 μM / CLint scaled at 5 μM: pH 7.4; for half-life at 5 μM: read-out: Rat T1/2; for CLint scaled at 5 μM: rat liver microsomes, in vivo CLint extrapolated
Procedure: as §1, §2, §3, §4, §5

U87MG glioblastoma cells = test: Tumor xenograft model (U87MG), tumor growth inhibition; format: in vivo, athymic nude mice; conditions: 14 days
Procedure: The efficacy of compounds disclosed herein was evaluated in a standard murine model of tumorigenesis. Human tumor cells (U87MG glioblastoma cells from ATCC) were expended in culture, harvested, and injected subcutaneously onto the rear flank of 6-7 week old female athymic nude mice (BALB/cA nu/nu, Hunan SLAC Laboratory Animal, Co.) (n=6-10 for vehicle group and for each dosing group). When tumors reached a volume of 100-250 mm^3, animals were randomly divided into vehicle control (for example, 5% DMSO+70% Captisol® (30%), 7% HCl (pH1), 18% Captisol® (30%); or 7% DMSO, 7% HCl (pH1), 70% Captisol® (30%), 16% Captisol® (30%), or the like) and compound groups. Subsequent administration of compound by oral gavage begins anywhere from day 0 to day 15 post tumor cell challenge and generally continues with once a day for the duration of the experiment.
Progression of tumor growth is assessed by tumor volumes and recorded as a function of time. The long (L) and short (W) axes of the subcutaneous tumors were measured with calipers twice weekly, and the tumor volume (TV) calculated as (L×W^2)/2). TGI was calculated from the difference between the median tumor volumes of vehicle-treated and drug-treated mice, expressed as a percentage of the median tumor volume of the vehicle-treated control group, by the following relation:
Initial statistical analysis is done by repeated measures analysis of variance (RMANOVA), followed by Scheffe psot hoc testing for multiple comparisons. Vehicle alone (5% DMSO+70% Captisol® (30%), 7% HCl (pH1), 18% Captisol® (30%); or 7% DMSO, 7% HCl (pH1), 70% Captisol® (30%), 16% Captisol® (30%), or the like) is the negative control.

PI3K (p110δ/p85α) (h) = target: T3, PI3K (p110δ/p85α) (h) (Homo sapiens, UniProt O00329); test: PI3K p110δ/p85α (h) non-radioactive HTRF assay; format: biochemical
T3 construct: purchased Millipore UK Ltd (assay service)
T3 sequence (O00329 whole entry): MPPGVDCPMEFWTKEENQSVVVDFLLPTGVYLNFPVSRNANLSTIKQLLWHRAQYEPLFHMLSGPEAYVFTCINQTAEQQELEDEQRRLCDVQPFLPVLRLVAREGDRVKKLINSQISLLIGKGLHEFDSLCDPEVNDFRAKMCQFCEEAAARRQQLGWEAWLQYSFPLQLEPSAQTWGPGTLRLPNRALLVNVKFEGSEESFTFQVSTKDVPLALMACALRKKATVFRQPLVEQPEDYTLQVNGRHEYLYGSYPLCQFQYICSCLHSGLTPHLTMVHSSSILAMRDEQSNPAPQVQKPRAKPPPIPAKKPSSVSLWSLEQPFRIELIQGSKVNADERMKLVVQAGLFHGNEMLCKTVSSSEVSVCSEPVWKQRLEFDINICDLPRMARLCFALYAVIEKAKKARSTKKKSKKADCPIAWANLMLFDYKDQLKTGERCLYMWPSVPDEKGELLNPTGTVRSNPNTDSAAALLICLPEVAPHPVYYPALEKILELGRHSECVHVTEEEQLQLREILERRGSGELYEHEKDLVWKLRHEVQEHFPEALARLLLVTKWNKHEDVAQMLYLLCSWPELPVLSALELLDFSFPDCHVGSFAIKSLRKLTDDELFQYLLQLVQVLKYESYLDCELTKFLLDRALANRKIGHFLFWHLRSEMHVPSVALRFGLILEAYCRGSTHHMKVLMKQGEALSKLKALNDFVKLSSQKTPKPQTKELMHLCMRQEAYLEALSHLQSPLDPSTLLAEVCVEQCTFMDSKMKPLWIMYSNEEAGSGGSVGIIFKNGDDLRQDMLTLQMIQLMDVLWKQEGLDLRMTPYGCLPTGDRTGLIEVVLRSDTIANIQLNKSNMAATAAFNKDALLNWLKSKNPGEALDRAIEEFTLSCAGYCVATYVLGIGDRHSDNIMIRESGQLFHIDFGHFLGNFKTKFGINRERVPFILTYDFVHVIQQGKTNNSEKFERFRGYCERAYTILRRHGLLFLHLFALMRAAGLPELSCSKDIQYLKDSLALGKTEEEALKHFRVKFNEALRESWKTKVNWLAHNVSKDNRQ
T3 sequence (P27986 whole entry partner): as the sequence (P27986 whole entry partner) above
Procedure: as §6, with “(p110δ/p85α)” for “p110α/p85α”, “phosphatidylinositol-4,5-bisphosphate” for “phosphatidylinositol 4,5-bisphosphate”, “MgATP mix.” for “ATP solution.”, “streptavidin-allophycocyanin.” for “streptavidin allophycocyanin.”
as §7

PI3K p110β/p85α (h) = target: T4, PI3K p110β/p85α (h) (Homo sapiens, UniProt P42338); test: PI3K p110β/p85α (h) non-radioactive HTRF assay; format: biochemical
T4 construct: purchased Millipore UK Ltd (assay service)
T4 sequence (P42338 whole entry): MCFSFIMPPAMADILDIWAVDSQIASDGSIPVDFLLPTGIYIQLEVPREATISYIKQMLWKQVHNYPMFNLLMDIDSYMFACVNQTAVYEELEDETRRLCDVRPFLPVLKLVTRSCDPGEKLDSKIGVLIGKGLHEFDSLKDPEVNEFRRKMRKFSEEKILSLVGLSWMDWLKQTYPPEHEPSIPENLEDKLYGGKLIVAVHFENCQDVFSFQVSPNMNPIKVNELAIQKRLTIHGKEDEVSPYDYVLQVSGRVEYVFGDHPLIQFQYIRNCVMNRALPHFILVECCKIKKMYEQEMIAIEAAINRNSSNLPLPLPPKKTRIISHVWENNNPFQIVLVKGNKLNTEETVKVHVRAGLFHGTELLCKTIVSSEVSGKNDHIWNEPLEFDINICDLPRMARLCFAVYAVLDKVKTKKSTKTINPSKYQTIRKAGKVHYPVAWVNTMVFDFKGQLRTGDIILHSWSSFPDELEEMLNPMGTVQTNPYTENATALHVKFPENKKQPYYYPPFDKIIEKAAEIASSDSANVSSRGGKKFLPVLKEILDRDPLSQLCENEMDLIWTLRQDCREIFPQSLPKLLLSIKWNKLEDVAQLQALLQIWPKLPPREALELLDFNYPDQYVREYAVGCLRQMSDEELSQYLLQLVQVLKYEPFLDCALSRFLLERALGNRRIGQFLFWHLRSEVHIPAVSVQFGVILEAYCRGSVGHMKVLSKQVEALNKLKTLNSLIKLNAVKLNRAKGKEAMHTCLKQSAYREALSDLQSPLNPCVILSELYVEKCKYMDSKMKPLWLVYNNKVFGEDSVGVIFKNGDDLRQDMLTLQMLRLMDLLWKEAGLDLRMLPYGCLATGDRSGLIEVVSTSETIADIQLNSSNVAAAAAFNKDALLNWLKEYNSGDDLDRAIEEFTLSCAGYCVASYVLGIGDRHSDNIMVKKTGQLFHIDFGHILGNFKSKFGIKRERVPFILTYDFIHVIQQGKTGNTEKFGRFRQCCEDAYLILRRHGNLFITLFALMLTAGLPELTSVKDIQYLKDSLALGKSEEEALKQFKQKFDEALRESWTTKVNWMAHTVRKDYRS
T4 sequence (P27986 whole entry partner): as the sequence (P27986 whole entry partner) above
Procedure: as §6, with “(p110β/p85α)” for “p110α/p85α”, “phosphatidylinositol-4,5-bisphosphate” for “phosphatidylinositol 4,5-bisphosphate”, “MgATP mix.” for “ATP solution.”, “streptavidin-allophycocyanin.” for “streptavidin allophycocyanin.”
as §7

[4] = rat liver microsomes 0.5 mg protein/mL, compound 5 μM, NADPH 1.0 mM, 37° C.

Row | Compound | half-life at 5 μM [1] | CLint scaled at 5 μM [1] | IC50 (PI3K p110α/p85α (h)) | IC50 (mTOR (h)) | F ([2]; iv dose 1 mg/kg) | Cl/F ([2]; iv dosing 1 mg/kg) | AUC(0-t) ([2]; iv dosing 1 mg/kg) | half-life ([2]; iv dosing 1 mg/kg) | Vd ([2]; iv dosing 1 mg/kg) | half-life at 5 μM [3, 4] | CLint scaled at 5 μM [3] | F ([2]; iv dose 2 mg/kg) | Cl/F ([2]; iv dosing 2 mg/kg) | AUC(0-t) ([2]; iv dosing 2 mg/kg) | half-life ([2]; iv dosing 2 mg/kg) | Vd ([2]; iv dosing 2 mg/kg) | IC50 (PI3K (p110δ/p85α) (h)) | IC50 (PI3K p110β/p85α (h)) | further results
1 | C#Cc1cnc2ccc(-c3cnc(OC)c(NS(=O)(=O)c4ccc(F)cc4)c3)nn12 [Ex. 1, N-(5-(3-ethynylimidazo[1,2-b]pyridazin-6-yl)-2-methoxypyridin-3-yl)-4-fluorobenzenesulfonamide] | 2.69 h | 10.8 mL/min/kg | 14 nM | 23 nM | 96.0% | 2.33 mL/min/kg | 6540 ng·h/mL | 6.39 h | 1 L/kg | 1.62 h | 25.5 mL/min/kg | – | – | – | – | – | – | – | –
2 | COc1ncc(-c2ccc3ncc(C#CCO)n3n2)cc1NS(=O)(=O)c1ccc(F)cc1 [Ex. 2, 4-fluoro-N-(5-(3-(3-hydroxyprop-1-yn-1-yl)imidazo[1,2-b]pyridazin-6-yl)-2-methoxypyridin-3-yl)benzenesulfonamide] | – | – | 6 nM | 29 nM | – | – | – | – | – | – | – | 56.1% | 1.67 mL/min/kg | 20700 ng·h/mL | 3.42 h | 0.22 L/kg | – | – | TGI % U87MG (U87MG glioblastoma cells; 1 mg/kg oral gavage): 6%; TGI % U87MG (U87MG glioblastoma cells; 3 mg/kg oral gavage): 21%; TGI % U87MG (U87MG glioblastoma cells; 10 mg/kg oral gavage): 35%
3 | COc1ncc(-c2ccc3ncc(C#CC(C)O)n3n2)cc1NS(=O)(=O)c1ccc(F)cc1 (stereo not shown) [Ex. 3, 4-fluoro N (5 (3 (3 hydroxybut-1-yn-1-yl)imidazo[1,2-b]pyridazin-6-yl)-2-methoxypyridin-3-yl)benzenesulfonamide] | 2.4 h | 12.1 mL/min/kg | 12 nM | 16 nM | – | – | – | – | – | 0.843 h | 49.1 mL/min/kg | 61.5% | 1.2 mL/min/kg | 29000 ng·h/mL | 3.11 h | 0.16 L/kg | – | – | –
4 | C#Cc1cnc2ccc(-c3cnc(OC)c(NS(=O)(=O)c4ccc(F)cc4F)c3)nn12 [Ex. 8, N-(5-(3-ethynylimidazo[1,2-b]pyridazin-6-yl)-2-methoxypyridin-3-yl)-2,4-difluorobenzenesulfonamide] | 4.04 h | 7.17 mL/min/kg | 6 nM | 12 nM | – | – | – | – | – | 1.25 h | 33.2 mL/min/kg | 115.1% | 2.17 mL/min/kg | 16600 ng·h/mL | 3.02 h | 0.37 L/kg | – | – | –
5 | CC#Cc1cnc2ccc(-c3cnc(OC)c(NS(=O)(=O)c4ccc(F)cc4F)c3)cn12 [Ex. 18, 2,4-difluoro-N-(2-methoxy-5-(3-(prop-1-yn-1-yl)imidazo[1,2-a]pyridin-6-yl)pyridin-3-yl)benzenesulfonamide] | 3.54 h | 8.18 mL/min/kg | – | – | 97.16% | 1.67 mL/min/kg | 10300 ng·h/mL | 2.33 h | 0.35 L/kg | 0.731 h | 56.6 mL/min/kg | – | – | – | – | – | 2 nM | 28 nM | –
6 | COc1ncc(-c2ccc3ncc(C#N)n3c2)cc1NS(=O)(=O)c1ccc(F)cc1F [Ex. 19, N-(5-(3-cyanoimidazo[1,2-a]pyridin-6-yl)-2-methoxypyridin-3-yl)-2,4-difluorobenzenesulfonamide] | 7.07 h | 4.1 mL/min/kg | – | – | – | – | – | – | – | – | – | 54.66% | 3.83 mL/min/kg | 10100 ng·h/mL | 2.58 h | 0.55 L/kg | 4 nM | 28 nM | Rat T1/2 [3, 4]: ∞
